Data published in patent US6329392A, “Substituted piperidines useful for the treatment of allergic diseases” (Aventis Pharmaceuticals, Inc., priority 1998, dated 2001).

Columns and labels:
NK1 receptor = molecular target: T1, NK1 receptor (Cavia porcellus, UniProt P30547); experiment: Antagonism of iodinated tachykinin (substance P) binding to NK1 receptors in guinea pig lungs; settings: read-out: NK1 Receptor Binding Affinity, IC50
T1 construct: as evaluated in guinea pig lungs (Keystone Biologicals, Cleveland, Ohio); tissue Keystone Biologicals, Cleveland, Ohio; host or cells: guinea pig lung membranes
Experimental: Antagonism of iodinated tachykinin binding to NK1 receptors by putative antagonists
One skilled in the art can measure the NK1 receptor affinity of proposed tachykinin antagonists as evaluated in guinea pig lungs (Keystone Biologicals, Cleveland, Ohio). Tissues or cells are homogenized with a Polytron in 15 volumes of 50 mM Tris-HCl buffer (pH 7.4, […]) and centrifuged. The pellet is resuspended in Tris-HCl buffer and centrifuged; the pellet is washed twice by resuspension. The final pellet is resuspended at a concentration of 40 mg/ml incubation buffer and remains at room temperature for at least 15 min prior to use. […] Incubations are performed at room temperature for 90 min; binding is terminated by addition of 50 mM Tris-HCl buffer (pH 7.4, […]) and filtration under vacuum through GF/B filters presoaked with 0.1% polyethyleneimine. Filter bound radioactivity is quantitated in a gamma counter. […] IC50 values (concentration required to inhibit 50% of receptor binding) are generated for each of the test compounds by nonlinear regression using an iterative curve fitting program (GraphPAD Inplot, San Diego, Calif.).

H1 receptor = molecular target: T2, H1 receptor (Cavia porcellus, UniProt P31389); experiment: Histamine (H1) antagonism in guinea pig ileum; format: cell-based; settings: read-out: H1 Receptor Antagonism, pA2, in vitro (converted)
T2 construct: A piece of ileum, about 20 cm in length, is removed and cut into 2 cm pieces; from tissue; host or cells: ileum of male Hartley guinea pigs
Experimental: Male Hartley guinea pigs, weighing 200-450 grams, are sacrificed by CO2 asphyxiation. A piece of ileum, about 20 cm in length, is removed and cut into 2 cm pieces. Each ileum piece is placed in an organ bath at 37° C. containing Tyrode's solution and is constantly aerated with 95% O2 /5%CO2. Tyrode's solution has the composition: NaCl 136.9 mM, KCl […], CaCl2 1.8 mM, NaH2 PO4 0.42 mM, NaHCO3 11.9 mM, and dextrose 5.55 mM. Contractions are measured with an isometric transducer (Grass FTO3C), and are recorded on a polygraph recorder and/or a computer. The ileum strips are loaded with 1.0 grams of tension and allowed to equilibrate for a minimum of 30 minutes before starting the experiments.
The potency of the antagonism is determined by the magnitude of the shift and is expressed as a pA2 value which is the negative logarithm of the molar concentration of antagonist which produces a two-fold shift of the dose response curve to the right. The pA2 value is calculated by using Schild analysis. O. Arunlakshana and H. O. Schild, Br. J. Pharmacol Chemother. 14, 48-58 (1958).
Table 1 presents pA2 values by the method of Example 93 which indicate potency of H1 receptor antagonism and IC50 values by the method of Example 95 which indicates NK1 receptor binding affinity for representative compounds of the present invention.

T2 sequence (P31389 whole entry): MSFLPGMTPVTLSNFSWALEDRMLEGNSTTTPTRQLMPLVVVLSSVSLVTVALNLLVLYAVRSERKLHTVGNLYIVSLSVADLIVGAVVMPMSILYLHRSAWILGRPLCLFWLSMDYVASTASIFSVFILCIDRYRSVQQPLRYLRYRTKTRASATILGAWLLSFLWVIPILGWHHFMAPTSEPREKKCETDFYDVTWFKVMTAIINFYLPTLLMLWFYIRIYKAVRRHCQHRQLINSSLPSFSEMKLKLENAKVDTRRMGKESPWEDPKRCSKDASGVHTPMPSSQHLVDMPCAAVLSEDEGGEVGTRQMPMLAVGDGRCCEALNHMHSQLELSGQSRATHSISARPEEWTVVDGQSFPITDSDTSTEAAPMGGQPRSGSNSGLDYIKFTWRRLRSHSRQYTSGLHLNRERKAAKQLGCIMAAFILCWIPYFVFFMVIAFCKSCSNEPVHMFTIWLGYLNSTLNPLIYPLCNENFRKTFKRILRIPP
T1 sequence (P30547 whole entry): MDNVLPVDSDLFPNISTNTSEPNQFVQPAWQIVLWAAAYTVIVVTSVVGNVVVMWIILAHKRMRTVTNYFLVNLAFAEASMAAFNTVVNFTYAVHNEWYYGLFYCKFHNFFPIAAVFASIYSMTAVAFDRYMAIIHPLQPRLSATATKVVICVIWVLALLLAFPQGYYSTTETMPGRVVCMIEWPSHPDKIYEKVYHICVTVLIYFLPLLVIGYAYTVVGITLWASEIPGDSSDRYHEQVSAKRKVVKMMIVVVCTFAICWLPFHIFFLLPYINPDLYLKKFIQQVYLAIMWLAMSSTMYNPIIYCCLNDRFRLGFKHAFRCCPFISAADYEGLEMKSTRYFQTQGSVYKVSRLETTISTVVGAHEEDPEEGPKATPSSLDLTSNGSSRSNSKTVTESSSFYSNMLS

SMILES | IC50 (NK1 receptor) | Kb (H1 receptor)
COc1cc(C(=O)N2CCC(CCN3CCC(C(=O)c4nc5ccccc5n4CCN4CCOCC4)CC3)(c3ccc(Cl)c(Cl)c3)C2)cc(OC)c1OC (stereo not drawn) [Example 32, 1-(3,4,5-Trimethoxy-benzoyl)-3-[2-[4-[1-(2-(morpholin-4-yl)-ethyl)-1 H-benzoimidazole-2-carbonyl]-piperidin-1-yl]-ethyl]-3-(3,4-dichlororphenyl)-pyrrolidine] | 15 nM | 513 nM
CCOCCn1c(C(=O)C2CCN(CCC3(c4ccc(Cl)c(Cl)c4)CCN(C(=O)c4cc(OC)c(OC)c(OC)c4)C3)CC2)nc2ccccc21 (stereo not drawn) [Example 83, 1-(3,4,5-Trimethoxy-benzoyl)-3-[2-[4-[1-(2-ethoxy-ethyl)-1H-benzoimidazole-2-carbonyl]-piperidin-1-yl]-ethyl]-3-(3,4-dichloro-phenyl)-pyrrolidine] | 31 nM | 105 nM
CCOCCn1c(C2(O)CCN(CCC3(c4ccc(Cl)c(Cl)c4)CCN(C(=O)c4cc(OC)c(OC)c(OC)c4)C3)CC2)nc2ccccc21 (single isomer, unassigned; (+)) [Example 81, (+)-1-(3,4,5-Trimethoxy-benzoyl)-3-[2-[4-[1-(2-ethoxy-ethyl)-1H-benzoimidazole]-4-hydroxy-piperidin-1-yl]-ethyl]-3-(3,4-dichloro-phenyl)-pyrrolidine] | 10 nM | 525 nM
